Experimental data taken from patent US12419832B2, “Intratumoral delivery of bortezomib” (Cognos Therapeutics, Inc., priority 2018, dated 2025).
pIC50: −log10 of the molar value. Entries after “also recorded” stand apart in the source; their conditions may differ. Like-named read-outs stand apart in the source and are kept apart here.

How the values were obtained:
[1] = tested on: human glioma cells (U251, LN229, U87); assay: MTT cytotoxicity assay on glioma cells; assay type: cell-based; details: Glioma cell, 3 cell lines (U251, LN229, U87), 48 hours, read-out: median inhibitory concentrations (IC50)
Experimental: Glioma cells (U251, LN229, U87) were treated with bortezomib (0-25 nM) for 48 hours. Cell death was evaluated using the MTT assay. O.D.=optical density.
Human glioma cells (U87, U251, and LN229) were cultured in DMEM, supplemented with 10% fetal bovine serum and 1% penicillin-streptomycin, and incubated in 5% CO2. Bortezomib (Velcade) was purchased from the University of Southern California/Norris Comprehensive Cancer Center pharmacy. Bortezomib has been approved by the FDA for clinical use. The sterile 14-day Alzet mini-osmotic pump (model 2002) was used in these experiments. The Alzet mini-osmotic pump has a reservoir volume of 200 μl and a delivery rate of 0.5 μl/hour. The brain infusion kit, which includes the pump and distribution tubing, was purchased from DURECT Corporation.
Glioma cells (5000 cells/well) were seeded in 96-well plates. After 24 hours, bortezomib was added to the cells at different concentrations, and the cells were incubated for 48 hours. The monotetrazolium (MTT) assay was performed according to the manufacturer's protocol (Calbiochem EMD, Millipore). Absorbance was measured using a microtiter plate reader (Molecular Devices) at 490 nm. Percent viability was calculated relative to untreated control cells. All experiments were performed in triplicate.

[2] = tested on: U251 glioma cells implanted subcutaneously; assay: Subcutaneous glioma xenograft tumor model, U251; assay type: in vivo, athymic nu/nu mice; details: IV 0.3 mg/kg twice per week (36 μg total), vs vehicle
Experimental: (§1) FIGS. 2A-2B. […] FIG. 2A: Glioma cells (U251) were implanted subcutaneously into athymic nu/nu mice. Fourteen days later, intravenous treatment was initiated: vehicle treatment (circle); bortezomib (36 μg total) (square). Subsequently animals were left untreated for 14 days. […] FIG. 2B: Glioma cells (U87) were implanted subcutaneously in athymic nude mice. Bortezomib was administered at a total dose of 36 μg by intravenous injection beginning on Day 30 post-implantation.
(§2) The animal protocol was approved by the institutional animal care and use committee of the University of Southern California. All mice were maintained in a pathogen-free environment throughout the experiment. For the subcutaneous tumor xenograft model, 5×10^5 human glioma cells (U87, U251, and LN229) suspended in a volume of 50 μl phosphate-buffered saline were implanted into the right flank of 30 athymic nude mice (Harlan, Inc.). Tumors were palpable approximately 2-3 weeks post-implantation. The animals were divided randomly into 5 groups of 6 mice, and treatment was initiated according to protocol.

[3] = tested on: U87 glioma cells implanted subcutaneously; assay: Subcutaneous glioma xenograft tumor model, U87; assay type: in vivo, athymic nude mice; details: 0.3 mg/kg (36 μg total), vs vehicle
Experimental: as §1, §2

[4] = tested on: U251 glioma cells implanted intracranially; assay: Orthotopic intracranial glioma model, U251, survival; assay type: in vivo, athymic nude mice; details: for median survival time: IT pump, control 23 days
Experimental: (§3) FIGS. 3A-3B. […] Human glioma cells U251 (FIG. 3A) or U87 (FIG. 3B) were implanted intracranially; subsequently, mice were given bortezomib (36 μg total) (square) or vehicle (circle) IV. The brain tumor size was monitored by optical imaging weekly, and animal survival data were analyzed by Kaplan-Meier plot.
FIG. 4. Bortezomib (BZM) administered intratumorally (IT) is effective in increasing survival. Glioma cells (U251) were implanted intracranially. After 10 days, animals were treated IT with vehicle; bortezomib IV (36 μg total); bortezomib IT (low dose, 0.36 μg total); bortezomib IT (medium dose, 1.2 μg total); and bortezomib IT (high dose, 3.6 μg total). […] CED=convection-enhanced delivery.
(§4) Briefly, athymic nude mice were anesthetized with ketamine and xylazine (10 mg/kg) and fixed into a stereotactic head frame (Harvard Apparatus). A 1.5-mm bur hole was drilled 1 mm anterior to the coronal suture on the right hemisphere and 2 mm lateral from the midline. A Hamilton syringe fixed onto the head frame was used to inject human glioma cells (2×10^5 cells/5 μl) into the right frontal lobe of the brain. The skin incision was then closed with 4-0 silk thread. The appropriate medications were provided to reduce pain.
(§5) Seven to 10 days after tumor cell implantation, imaging was used to confirm brain tumor formation. Briefly, mice were anesthetized using 2% isoflurane gas and injected intravenously (IV) with 50 mg/kg of D-Luciferin (Perkin Elmer) and placed into the IVIS Spectrum (Caliper Life Sciences). Analysis was performed with Living Image software (Caliper Life Sciences), in which circular regions of interest drawn over the tumor site were used, and results were reported as total flux (photons/second). Based on total flux, animals were randomly divided into experimental groups.
Once tumors were identified, approximately 7 days after intracranial tumor cell implantation, Alzet mini-osmotic pumps were filled with the desired dose of reagent and implanted. A plastic tube primed with the agent was used to connect the infusion kit to the brain. The assembled delivery system was stored at 4° C. overnight before implantation. Bortezomib was delivered into the tumor using the Alzet mini-osmotic pumps.
To anchor the pump to the animal, an incision was made in the scalp alongside the previous surgical scar. The caudal edge of the incision was pulled, and the connective tissues were separated. Subsequently a subcutaneous tunnel was prepared. The Alzet mini-osmotic pump was pushed backward to adjust the location of the brain infusion kit directly above the hole in the skull that had been previously drilled for tumor cell implantation. The infusion kit (plastic tubing) was gently inserted into the formed tumor. The plastic platform end was fixed onto the skull by using instant super glue. The area around the skin incision was sterilized and sutured with 4-0 silk thread. The contents of the Alzet mini-osmotic pump were released into the tumor at a rate of […]. The treatment groups (6 mice per group) were listed as the following: 1) pump-administered vehicle (saline); 2) bortezomib (0.3 mg/kg=36 μg in total) given by intravenous injection; 3) low-dose bortezomib (0.003 mg/kg=0.36 μg in total) intracranial pump delivery; 4) medium-dose bortezomib (0.01 mg/kg=1.2 μg in total) intracranial pump delivery; and 5) high-dose bortezomib (0.03 mg/kg=3.6 μg in total) intracranial pump delivery. In summary, bortezomib was administered for 14 days, either IV at 0.3 mg/kg twice weekly (total 4 injections in 14 days), or continuously into the intracranial tumor bed by using the Alzet mini-osmotic pump. After the treatment was completed (14 days), animals were left untreated until the appearance of neurological and behavioral abnormalities requiring euthanasia. Animals treated with vehicle received saline by Alzet mini-osmotic pump.
Survival data were plotted using the Kaplan-Meier method. […]

[5] = tested on: U87 glioma cells implanted intracranially; assay: Orthotopic intracranial glioma model, U87, survival; assay type: in vivo, athymic nude mice; details: IV 36 μg total
Experimental: as §3, §4
as §5, with “Based on total flux, animals were randomly divided into experimental groups.” left out

20S proteasome = 20S proteasome activity assay on lysates of tumor-bearing brains; assay type: in vivo, mice; details: IT 3.6 μg total, Alzet pump
Experimental: FIG. 5. […] Animals were treated by intratumorally administration of bortezomib (3.6 μg total) using the Alzet pump. After 5, 7 or 10 days, animals were euthanized, tumor-bearing brains were harvested, and lysates prepared for the proteasome activity assay. Control values were obtained from vehicle-treated brains at 5, 7, and 10 days.
Brain lysates were prepared by homogenization of tumor-bearing brains in phosphate-buffered saline. Supernatants were collected by centrifugation at 12,000 rpm for 15 minutes at 4° C. Total protein concentration was measured by the BCA protein assay, and 100 μg of total protein was used to measure proteasome activity. The 20S proteasome assay kit (EMD Millipore) was used according to manufacturer's instructions. The assay is based on detection of fluorophore 7-amino-4-methylcoumarin (AMC) after cleavage from the labeled substrate LLVYAMC. The free AMC fluorescence was quantified using 380-nm excitation and 460-nm emission filters.

[6] = Dose escalation, intracerebral osmotic mini-pump, normal nontumor-bearing mice
Experimental: The doses of bortezomib used in these experiments were determined by injecting escalating doses of the drug intracerebrally (delivered by osmotic mini-pump) into normal, nontumor-bearing mice. […] In FIG. 4, treatment groups (n=6) were vehicle (saline-filled pump); bortezomib given IV (36 μg in total); bortezomib IT (low dose, 0.36 μg); bortezomib IT (medium dose, 1.2 μg); and bortezomib IT (high dose, 3.6 μg).

[7] = tested on: intracranial glioma tumor; assay: Histological investigation of tumor-bearing brains (H & E, TRA 1-85); assay type: in vivo, mice
Experimental: FIG. 6. […] Tumor-bearing animals were treated with intratumoral-administered bortezomib (A) or IV-administered-bortezomib (B). After 5 days the animals were euthanized, brains harvested, and stained with hematoxylin/eosin.
Tissues used for histological investigation were fixed in 10% formalin, embedded in paraffin, and stained with H & E. The antibody TRA-1-85/CD147 (RD Systems) was used to stain for human cells.

malignant gliomas / GBM = details: cited from earlier work
[8] = tested on: glioma stem cells and normal stem cells; details: cited from earlier work

CC(C)C[C@H](NC(=O)[C@H](Cc1ccccc1)NC(=O)c1cnccn1)B(O)O [bortezomib, [(1R)-3-methyl-1-[[(2S)-3-phenyl-2-(pyrazine-2-carbonylamino)propanoyl]amino]butyl]boronic acid]
pIC50 [1]: 8.00 to 8.30 | tumor growth rate [2]: significantly effective in delaying tumor growth | tumor growth rate ([2]; listed as Bortezomib): significantly (p=0.0145) decreased tumor growth rate | tumor growth rate / tumor progression [3]: delayed tumor progression | tumor growth rate / tumor progression ([3]; listed as Bortezomib): significantly (p=0.041) decreased tumor growth rate | increase in survival ([4]; IT administration, median survival 23 to 37 days): approximately 40% | survival, IT vs IV (36 μg) ([4]; U251 intracranial, IT high dose 3.6 μg total, p=0.0022): significantly enhanced survival | survival, IT vs IV (36 μg) ([4]; U251 intracranial, IT low dose 0.36 μg total, p=0.1104): not significant | survival, IT vs IV (36 μg) ([4]; U251 intracranial, IT medium dose 1.2 μg total, p=0.0005): significantly enhanced survival | median survival time ([4]; U251 intracranial, high dose 3.6 μg total): 37 days | median survival time ([4]; U251 intracranial, medium dose 1.2 μg total): 34 days | survival vs vehicle ([4]; U251 intracranial, IV 0.3 mg/kg (36 μg total), 0.3 mg/kg): no significant differences in survival time; also recorded: not significant | survival vs vehicle [5]: no significant differences | proteasome activity in tumor-bearing brain vs vehicle (20S proteasome; 5 days, p=0.03): significantly reduced proteasome activity | proteasome activity in tumor-bearing brain vs vehicle (20S proteasome; 7 days, p=0.03): significantly reduced proteasome activity | proteasome activity in tumor-bearing brain vs vehicle (20S proteasome; 10 days, p=0.0048): significantly reduced proteasome activity | toxicity ([6]; 7.2 μg): toxic and fatal | toxicity ([6]; 18.0 μg): toxic and fatal | toxicity ([6]; 36.0 μg): toxic and fatal | tumor size (surface area), IV-treated animal relative to intratumoral-treated animal ([7]; Day 5, IV 36 μg total vs IT 3.6 μg total, H & E): approximately ten-fold larger | tumor cell invasion into mouse brain, IV-treatment compared to IT-treated ([7]; anti-human antibody TRA 1-85 staining): greater tumor cell invasion | microvessel densities vs vehicle-treated mice ([7]; data not shown): not significantly different | therapeutic benefit, Phase II trial (malignant gliomas / GBM; combination with tamoxifen, systemic, patients with malignant gliomas): no therapeutic benefit | benefit, Phase II clinical trial (malignant gliomas / GBM; combination with vorinostat, bortezomib IV, GBM): no benefit | cytotoxicity ([8]; glioma stem cells): cytotoxic | cytotoxicity ([8]; normal stem cells): not toxic
